Laboratory results reported in patent publication EP2712863B1, “Novel inhibitors of bacterial biofilms and related methods” (Sequoia Sciences, Inc., priority 2012, dated 2014).
In brackets after ≈: the same amount, converted by molar mass. Where two headings read alike, the source gives them in different places.

How the values were obtained:
P. aeruginosa = assay: Biofilm growth assay (spreading biofilm on semi-solid agar); format: cell-based; settings: for IC85: Pseudomonas aeruginosa
Excerpt: (§1) "Biofilm Growth Assay" refers to an assay performed on semi-solid agar surface where the bacteria collectively move out from an inoculation point. To those skilled in the art, the act of bacteria collectively moving out from an inoculation point on a semi-solid surface may be referred to as swarming or a spreading biofilm. (Anderson, et al Microbiology, 2003, 149, 37-46; Daniels, et al. FEMS Microbiology Reviews, 2004, 28, 261-289). The procedure to perform this assay is described in detail in the Examples. This type of surface motility by bacteria has been reported in the literature by those skilled in the art.
(§2) The biofilm growth assay was carried out to measure swarming or biofilm spreading on semi-solid agar media in round plates (for example, 100 × 15 mm), also referred to as Petri dishes. For E. coli, the plates contained LB medium with 0.6% agar and 0.5% glucose. P. aeruginosa plates were made with M8 agar supplemented with 0.2% glucose, 100 µM CaCl2, 1 mM MgSO4, and 0.5% Casamino acids. The agar plates of this assay consisted of 0.4% to 0.7% agar (Bacto or Noble agar), although other media may also be used as described in the literature and known to those skilled in the art. Test compounds at the desired concentration were added to the cooled, autoclaved media. Portions of the media were then poured into the plates (20 mL/plate), and the plates allowed to dry at room temperature for approximately 3 to 4 hours. Alternatively, however, plates may be dried in a laminar flow hood for approximately fifteen to twenty minutes. Overnight cultures were grown in a 37°C shaker in LB (E. coli) or TSB (P. aeruginosa). Plates were inoculated by placing 5 µL of the appropriate overnight culture in the centers of the plates. The plates then were incubated overnight at 37°C. The area of the zone of spreading bacteria was then measured and replicates are averaged. Percent inhibition was calculated as 100 × (area without compound - area with compound)/(area without compound). An active compound was considered that which reduces the area of the spreading biofilm compared to negative controls by greater than or equal to 85%. The values shown in Table 1 are the concentrations of compounds (µg/ml) tested in the biofilm growth assay that reduce the area of the spreading biofilm compared to negative controls by greater than or equal to 85% unless noted differently in Table 1. A > ("greater than" symbol) as used in Table 1 is well understood to those skilled in the art as an indication that the listed concentration was not effective at this concentration.
(§3) All of the compounds shown in Tables 2, 3, 4, and 5, below, were prepared semi-synthetically from oleanolic acid, except for Compounds 2 and 3. Compound 2 was prepared from ursolic acid. Compound 3 was prepared from hederagenin, but could also be prepared from an oleanolic acid analog with a hydroxyl at C23 or C24. These compounds were tested in the spreading biofilm assay according to the methods detailed in Example I, above. The values shown in Tables 2, 3, 4, and 5 are the concentrations of compounds tested in the biofilm growth assay that reduce the area of the spreading biofilm compared to negative controls by greater than or equal to 85%. Table 2. Compound 1 and its Analogs and their inhibitory concentrations in the biofilm growth assay as detailed in Example I, above

E. coli = assay: as above; format: cell-based; settings: for IC85: Escherichia coli, read-out: E. coli
Excerpt: as §1, §2, §3

[1] = Table 3, concentration that reduces the area of the spreading biofilm by >= 85%, read-out: P. aeruginosa
[2] = Table 3, concentration that reduces the area of the spreading biofilm by >= 85%
[3] = Table 1, concentration that reduces the area of the spreading biofilm vs negative controls by >= 85%, > means not effective at this concentration, read-out: P. aeruginosa
[4] = Table 1, concentration that reduces the area of the spreading biofilm vs negative controls by >= 85%, > means not effective at this concentration
[5] = Table 4, concentration that reduces the area of the spreading biofilm by >= 85%
[6] = Table 4, concentration that reduces the area of the spreading biofilm by >= 85%, read-out: P. aeruginosa
[7] = Table 2, concentration that reduces the area of the spreading biofilm by >= 85%, read-out: P. aeruginosa
[8] = Table 2, concentration that reduces the area of the spreading biofilm by >= 85%

## CC1(C)CC[C@]2(C(=O)O)CC[C@]3(C)C(=C(c4cn[nH]c4)CC4[C@@]5(C)Cc6c(n[nH]c6N)C(C)(C)[C@@H]5CC[C@]43C)[C@@H]2C1 (stereo partly drawn) [Compound 27, (4aS,6aS,6bR,8aR,13aR,15bS)-12-Amino-2,2,6a,6b,9,9,13a-heptamethyl-15-(1H-pyrazol-4-yl)-2,3,4,4a,5,6,6a,6b,7,8,8a,9,11,13,13a,13b,14,15b-octadecahydro-1 H-chryseno[1,2-f]indazole-4a-carboxylic acid]
P. aeruginosa; [1]
  IC85: 1 µg/mL (≈ 1.79 µM)
E. coli; [2]
  IC85: > 2 µg/mL

## C=C(C)[C@@H]1CC[C@]2(C)CC[C@]3(C)[C@H](CC[C@@H]4[C@@]5(C)CC[C@H](O)C(C)(C)[C@@H]5CC[C@]43C)[C@@H]12 [Lupeol, reference compound]
P. aeruginosa; [3]
  IC85: > 16 µg/mL
E. coli; [4]
  IC85: > 8 µg/mL

## CC1(C)CC[C@]2(C(=O)Nc3nnc(S(N)(=O)=O)s3)CC[C@]3(C)C(=CCC4[C@@]5(C)Cc6c(n[nH]c6N)C(C)(C)C5CC[C@]43C)C2C1 (stereo partly drawn) [Compound 80]
P. aeruginosa; [5]
  P. aeruginosa: 1 µg/mL
E. coli; [5]
  E. coli: 1 µg/mL

## CC1(C)CC[C@]2(c3n[nH]c(O)c3N3CCOCC3)CC[C@]3(C)C(=CCC4[C@@]5(C)Cc6c(n[nH]c6N)C(C)(C)C5CC[C@]43C)C2C1 (stereo partly drawn) [Compound 88, 3-((4aS,6aS,6bR,13aR)-12-Amino-2,2,6a,6b,9,9,13a-heptamethyl-2,3,4,4a,5,6,6a,6b,7,8,8a,9,11,13,13a,13b,14,15b-octadecahydro-1H-chryseno[1,2-f]indazol-4a-yl)-4-morpholino-1H-pyrazol-5-ol]
P. aeruginosa; [6]
  IC85: 0.25 µg/mL (≈ 0.405 µM)
E. coli; [5]
  IC85: 0.5 µg/mL (≈ 0.811 µM)

## CC1(C)CC[C@]2(C(=O)Nc3cc(N)n[nH]3)CC[C@]3(C)C(=CCC4[C@@]5(C)Cc6c(n[nH]c6N)C(C)(C)C5CC[C@]43C)C2C1 (stereo partly drawn) [Compound 69, (4aS,6aS,6bR,13aR)-12-amino-N-(3-amino-1H-pyrazol-5-yl)-2,2,6a,6b,9,9,13a-heptamethyl-2,3,4,4a,5,6,6a,6b,7,8,8a,9,11,13,13a,13b,14,15b-octadecahydro-1H-chryseno[1,2-f]indazole-4a-carboxamide]
P. aeruginosa; [6]
  IC85: 1 µg/mL (≈ 1.74 µM)
E. coli; [5]
  IC85: 1 µg/mL (≈ 1.74 µM)

## CC1(C)CC[C@]2(C(=O)O)CC[C@]3(C)C(=CC[C@@H]4[C@@]5(C)Cc6c(noc6N)C(C)(C)[C@@H]5CC[C@]43C)[C@@H]2C1 [K]
P. aeruginosa; [3]
  IC85: > 8 µg/mL
E. coli; [4]
  IC85: > 8 µg/mL

## CC1(C)CC[C@]2(C(=O)O)CC[C@]3(C)C(=C(c4c[nH]c5ccccc45)CC4[C@@]5(C)Cc6c(n[nH]c6N)C(C)(C)[C@@H]5CC[C@]43C)[C@@H]2C1 (stereo partly drawn) [Compound 8, (4aS,6aS,6bR,8aR,13aR,15bS)-12-Amino-15-(1H-indol-3-yl)-2,2,6a,6b,9,9,13a-heptamethyl-2,3,4,4a,5,6,6a,6b,7,8,8a,9,11,13,13a,13b,14,15b-octadecahydro-1H-chryseno[1,2-f]indazole-4a-carboxylic acid]
P. aeruginosa; [7]
  IC85: 0.25 µg/mL (≈ 0.411 µM)
E. coli; [8]
  IC85: 1 µg/mL (≈ 1.64 µM)

## CN(C)c1ccc(C2=C3C4CC(C)(C)CC[C@]4(C(=O)O)CC[C@@]3(C)[C@]3(C)CCC4C(C)(C)c5n[nH]c(N)c5C[C@]4(C)C3C2)cc1 (stereo in doubt) [Compound 10, (4aS,6aS,6bR,13aR)-12-Amino-15-(4-(dimethylamino)phenyl)-2,2,6a,6b,9,9,13a-heptamethyl-2,3,4,4a,5,6,6a,6b,7,8,8a,9,11,13,13a,13b,14,15b-octadecahydro-1H-chryseno[1,2-f]indazole-4a-carboxylic acid]
P. aeruginosa; [7]
  IC85: 0.5 µg/mL (≈ 0.816 µM)
E. coli; [8]
  IC85: 1 µg/mL (≈ 1.63 µM)

## CC1(C)CC[C@]2(C(=O)Nc3cc(O)[nH]n3)CC[C@]3(C)C(=CCC4[C@@]5(C)Cc6c(n[nH]c6N)C(C)(C)C5CC[C@]43C)C2C1 (stereo partly drawn) [Compound 66, (4aS,6aS,6bR,13aR)-12-Amino-N-(5-hydroxy-1H-pyrazol-3-yl)-2,2,6a,6b,9,9,13a-heptamethyl-2,3,4,4a,5,6,6a,6b,7,8,8a,9,11,13,13a,13b, 14,15b-octadecahydro-1H-chryseno[1,2-f]indazole-4a-carboxamide]
P. aeruginosa; [6]
  IC85: 0.25 µg/mL (≈ 0.435 µM)
E. coli; [5]
  IC85: 1 µg/mL (≈ 1.74 µM)

## CC1(C)CC[C@]2(C(=O)O)CC[C@]3(C)C(=C(c4ccc(N5CCCC5)nc4)CC4[C@@]5(C)Cc6c(n[nH]c6N)C(C)(C)C5CC[C@]43C)C2C1 (stereo partly drawn) [Compound 45, (4aS,6aS,6bR,13aR)-12-Amino-2,2,6a,6b,9,9,13a-heptamethyl-15-(6-(pyrrolidin-1-yl)pyridin-3-yl)-2,3,4,4a,5,6,6a,6b,7,8,8a,9,11,13,13a,13b,14,15b-octadecahydro-1H-chryseno[1,2-f]indazole-4a-carboxylic acid]
P. aeruginosa; [1]
  IC85: 0.5 µg/mL (≈ 0.781 µM)
E. coli; [2]
  IC85: 1 µg/mL (≈ 1.56 µM)

## C=C(C)[C@@H]1CC[C@]2(C(=O)O)CC[C@]3(C)[C@H](CC[C@@H]4[C@@]5(C)CC[C@H](O)C(C)(C)[C@@H]5CC[C@]43C)[C@@H]12 [Betulinic acid, reference compound]
P. aeruginosa; [3]
  IC85: > 16 µg/mL
E. coli; [4]
  IC85: > 16 µg/mL

## CC1(C)CC[C@]2(C(=O)Sc3nnc(N)[nH]3)CC[C@]3(C)C(=CCC4[C@@]5(C)Cc6c(n[nH]c6N)C(C)(C)C5CC[C@]43C)C2C1 (stereo partly drawn) [Compound 70, (4aS,6aS,6bR,13aR)-S-5-Amino-4H-1,2,4-triazol-3-yl 12-amino-2,2,6a,6b,9,9,13a-heptamethyl-2,3,4,4a,5,6,6a,6b,7,8,8a,9,11,13,13a,13b,14,15b-octadecahydro-1H-chryseno[1,2-f]indazole-4a-carbothioate]
P. aeruginosa; [6]
  IC85: 0.5 µg/mL (≈ 0.845 µM)
E. coli; [5]
  IC85: 2 µg/mL (≈ 3.38 µM)

## CN1CCN(c2ccc(C3=C4C5CC(C)(C)CC[C@]5(C(=O)O)CC[C@@]4(C)[C@]4(C)CCC5C(C)(C)c6n[nH]c(N)c6C[C@]5(C)C4C3)cn2)CC1 (stereo partly drawn) [Compound 56, (4aS,6aS,6bR,13aR)-12-Amino-2,2,6a,6b,9,9,13a-heptamethyl-15-(6-(4-methylpiperazin-1-yl)pyridin-3-yl)-2,3,4,4a,5,6,6a,6b,7,8,8a,9,11,13,13a,13b,14,15b-octadecahydro-1H-chryseno[1,2-f]indazole-4a-carboxylic acid]
P. aeruginosa; [1]
  IC85: 1 µg/mL (≈ 1.49 µM)
E. coli; [2]
  IC85: 2 µg/mL (≈ 2.99 µM)

## CC1(C)CC[C@]2(C(=O)O)CC[C@]3(C)C(=C(c4cc[nH]c4)CC4[C@@]5(C)Cc6c(n[nH]c6N)C(C)(C)[C@@H]5CC[C@]43C)[C@@H]2C1 (stereo partly drawn) [Compound 6, (4aS,6aS,6bR,8aR,13aR,15bS)-12-Amino-2,2,6a,6b,9,9,13a-heptamethyl-15-(1H-pyrrol-3-yl)-2,3,4,4a,5,6,6a,6b,7,8,8a,9,11,13,13a,13b,14,15b-octadecahydro-1H-chryseno[1,2-f]indazole-4a-carboxylic acid]
E. coli; [8]
  IC85: 0.25 µg/mL (≈ 0.447 µM)

## C[C@H]1[C@H](C)CC[C@]2(C)CC[C@]3(C)C(=CC[C@@H]4[C@@]5(C)CC[C@H](O)C(C)(C)[C@@H]5CC[C@]43C)[C@H]12 [alpha-Amyrin, reference compound]
P. aeruginosa; [4]
  P. aeruginosa: > 32 µg/mL

## CC1(C)CC[C@]2(C(=O)O)CC[C@]3(C)C(=CC[C@@H]4[C@@]5(C)C[C@@H](O)[C@H](O)C(C)(C)[C@@H]5CC[C@]43C)[C@@H]2C1 [Maslinic acid, reference compound]
P. aeruginosa; read-out: P. aeruginosa (µg/ml)
  IC85: 4 µg/mL (≈ 8.46 µM)

## C[C@H]1[C@H](C)CC[C@]2(C(=O)O)CC[C@]3(C)C(=CC[C@@H]4[C@@]5(C)C[C@@H](O)[C@H](O)C(C)(C)[C@@H]5CC[C@]43C)[C@H]12 [Corosolic acid, reference compound]
P. aeruginosa; [3]
  IC85: 4 µg/mL (≈ 8.46 µM)
